Reference: patent publication US10597388B2, “Pyridazinone herbicides” (FMC CORPORATION, priority 2014, dated 2020)

How the values were obtained:
Test in all cases: Test E greenhouse herbicide test, pre- and postemergence
Type in all cases: in vivo
Conditions in all cases: Preemergence
[1] = tested on: panicum, fall (fall panicum, Panicum dichotomiflorum)
Text: (§1) Seeds of plant species selected from corn (Zea mays), soybean (Glycine max), velvetleaf (Abutilon theophrasti), lambsquarters (Chenopodium album), wild poinsettia (Euphorbia heterophylla), pigweed, palmer (palmer pigweed, Amaranthus palmeri), waterhemp (common waterhemp, Amaranthus rudis), surinam grass (Brachiaria decumbens), crabgrass, large (large crabgrass, Digitaria sanguinalis), crabgrass, Brazilian (Brazilian crabgrass, Digitaria horizontalis), panicum, fall (fall panicum, Panicum dichotomiflorum), foxtail, giant (giant foxtail, Setaria faberii), foxtail, green (green foxtail, Setaria viridis), goosegrass (Eleusine indica), johnsongrass (Sorghum halepense), ragweed (common ragweed, Ambrosia elatior), barnyardgrass (Echinochloa crus-galli), sandbur (southem sandbur, Cenchrus echinatus), arrowleaf sida (Sida rhombifolia), Italian ryegrass (Lolium multiflorum), dayflower (Virginia (VA) dayflower, Commelina virginica), field bindweed (Convolvulus arvensis), momingglory (Ipomoea coccinea), nightshade (eastern black nightshade, Solanum ptycanthum), kochia (Kochia scoparia), nutsedge, yellow (yellow nutsedge, Cyperus esculentus), horseweed (Conyza canadensis), and beggarticks (hairy beggarticks, Bidens pilosa), were planted into a silt loam soil and treated preemergence with test chemicals formulated in a non-phytotoxic solvent mixture which included a surfactant.
(§2) At the same time, plants from these crop and weed species and also waterhemp_RES1, (ALS & Triazine resistant common waterhemp, Amaranthus rudis), and waterhemp_RES2, (ALS & HPPD resistant common waterhemp, Amaranthus rudis) were planted in pots containing Redi-Earth® planting medium (Scotts Company, 14111 Scottslawn Road, Marysville, Ohio 43041) comprising spaghnum peat moss, vermiculite, wetting agent and starter nutrients were treated with postemergence applications of test chemicals formulated in the same manner. Plants ranged in height from 2 to 18 cm for postemergence treatments (1- to 4-leaf stage). Treated plants and controls were maintained in a greenhouse for 14 to 21 d, after which time all species were compared to controls and visually evaluated. Plant response ratings, summarized in Table E, are based on a scale of 0 to 100 where 0 is no effect and 100 is complete control. A dash (-) response means no test result.

[2] = tested on: crabgrass, Brazilian (Brazilian crabgrass, Digitaria horizontalis)
Text: as §1, §2

[3] = tested on: dayflower (Virginia (VA) dayflower, Commelina virginica)
Text: as §1, §2

[4] = tested on: foxtail, giant (giant foxtail, Setaria faberii)
Text: as §1, §2

[5] = tested on: nutsedge, yellow (yellow nutsedge, Cyperus esculentus)
Text: as §1, §2

[6] = tested on: waterhemp (common waterhemp, Amaranthus rudis)
Text: as §1, §2

[7] = tested on: sandbur (southem sandbur, Cenchrus echinatus)
Text: as §1, §2

[8] = tested on: Italian ryegrass (Lolium multiflorum)
Text: as §1, §2

[9] = tested on: lambsquarters (Chenopodium album)
Text: as §1, §2

[10] = tested on: foxtail, green (green foxtail, Setaria viridis)
Text: as §1, §2

[11] = tested on: beggarticks (hairy beggarticks, Bidens pilosa)
Text: as §1, §2

[12] = tested on: ragweed (common ragweed, Ambrosia elatior)
Text: as §1, §2

[13] = tested on: johnsongrass (Sorghum halepense)
Text: as §1, §2

[14] = tested on: barnyardgrass (Echinochloa crus-galli)
Text: as §1, §2

[15] = tested on: crabgrass, large (large crabgrass, Digitaria sanguinalis)
Text: as §1, §2

kochia (Kochia scoparia) = tested on: kochia (Kochia scoparia)
Text: as §1, §2

[16] = tested on: velvetleaf (Abutilon theophrasti)
Text: as §1, §2

[17] = 62 g ai/ha, scale 0 to 100 (0 no effect, 100 complete control)
[18] = 125 g ai/ha, scale 0 to 100 (0 no effect, 100 complete control)
[19] = 31 g ai/ha, scale 0 to 100, 0 no effect, 100 complete control
[20] = 250 g ai/ha, visual, scale 0 no effect to 100 complete control
[21] = 125 g ai/ha, visual, scale 0 no effect to 100 complete control

## CCOC(=O)Oc1c(C)nn(C)c(=O)c1-c1c(CC)ccc2ccccc12 [Compound 37]
[1]; [17]
  Plant response rating, Panicum, Fall: 100
[1]; [18]
  Plant response rating, Panicum, Fall: 100
[1]; [19]
  Plant response rating, Panicum, Fall: 90
[1]; [20]
  Plant response rating, Panicum, Fall: 100
[2]; [17]
  Plant response rating, Crabgrass, Brazil: 85
[2]; [19]
  Plant response rating, Crabgrass, Brazil: 70
[2]; [21]
  Plant response rating, Crabgrass, Brazil: 90
[2]; [20]
  Plant response rating, Crabgrass, Brazil: 95
[3]; [17]
  Plant response rating, Dayflower, VA: 5
[3]; [19]
  Plant response rating, Dayflower, VA: 0
[3]; [21]
  Plant response rating, Dayflower, VA: 40
[3]; [20]
  Plant response rating, Dayflower, VA: 60
[4]; [17]
  Plant response rating, Foxtail, Giant: 70
[4]; [19]
  Plant response rating, Foxtail, Giant: 65
[4]; [21]
  Plant response rating, Foxtail, Giant: 80
[4]; [20]
  Plant response rating, Foxtail, Giant: 90
[5]; [17]
  Plant response rating, Nutsedge, Yellow: 0
[5]; [18]
  Plant response rating, Nutsedge, Yellow: 65
[5]; [19]
  Plant response rating, Nutsedge, Yellow: 0
[5]; [20]
  Plant response rating, Nutsedge, Yellow: 70
[6]; [17]
  Plant response rating, Waterhemp: 75
[6]; [18]
  Plant response rating, Waterhemp: 98
[6]; [19]
  Plant response rating, Waterhemp: 0
[6]; [20]
  Plant response rating, Waterhemp: 100
[7]; [17]
  Plant response rating, Sandbur: 35
[7]; [18]
  Plant response rating, Sandbur: 50
[7]; [19]
  Plant response rating, Sandbur: 20
[7]; [20]
  Plant response rating, Sandbur: 65
[8]; [17]
  Plant response rating, Ryegrass, Italian: 95
[8]; [18]
  Plant response rating, Ryegrass, Italian: 100
[8]; [19]
  Plant response rating, Ryegrass, Italian: 85
[8]; [20]
  Plant response rating, Ryegrass, Italian: 100
[9]; [17]
  Plant response rating, Lambsquarters: 100
[9]; [19]
  Plant response rating, Lambsquarters: 100
[9]; [21]
  Plant response rating, Lambsquarters: 98
[9]; [20]
  Plant response rating, Lambsquarters: 100
[10]; [17]
  Plant response rating, Foxtail, Green: 60
[10]; [19]
  Plant response rating, Foxtail, Green: 0
[10]; [21]
  Plant response rating, Foxtail, Green: 65
[10]; [20]
  Plant response rating, Foxtail, Green: 80
[11]; [17]
  Plant response rating, Beggarticks: 98
[11]; [19]
  Plant response rating, Beggarticks: 80
[11]; [21]
  Plant response rating, Beggarticks: 98
[11]; [20]
  Plant response rating, Beggarticks: 100
[12]; [17]
  Plant response rating, Ragweed: 90
[12]; [18]
  Plant response rating, Ragweed: 95
[12]; [19]
  Plant response rating, Ragweed: 50
[12]; [20]
  Plant response rating, Ragweed: 98
[13]; [17]
  Plant response rating, Johnsongrass: 0
[13]; [19]
  Plant response rating, Johnsongrass: 0
[13]; [21]
  Plant response rating, Johnsongrass: 100
[13]; [20]
  Plant response rating, Johnsongrass: 100
[14]; [17]
  Plant response rating, Barnyardgrass: 0
[14]; [19]
  Plant response rating, Barnyardgrass: 0
[14]; [21]
  Plant response rating, Barnyardgrass: 0
[14]; [20]
  Plant response rating, Barnyardgrass: 30
[15]; [17]
  Plant response rating, Crabgrass, Large: 75
[15]; [19]
  Plant response rating, Crabgrass, Large: 50
[15]; [21]
  Plant response rating, Crabgrass, Large: 80
[15]; [20]
  Plant response rating, Crabgrass, Large: 90
Kochia (Kochia scoparia); [17]
  Plant response rating, Kochia: 0
Kochia (Kochia scoparia); [19]
  Plant response rating, Kochia: 0
Kochia (Kochia scoparia); [21]
  Plant response rating, Kochia: 0
Kochia (Kochia scoparia); [20]
  Plant response rating, Kochia: 65
[16]; [17]
  Plant response rating, Velvetleaf: 50
[16]; [18]
  Plant response rating, Velvetleaf: 70
[16]; [19]
  Plant response rating, Velvetleaf: 30
[16]; [20]
  Plant response rating, Velvetleaf: 100
